Laboratory results as given in patent US20190151403A1, “NOVEL CYCLOSPORIN DERIVATIVES AND USES THEREOF” (S&T Global Inc., priority 2016, published 2019).
Where two headings read alike, the source gives them in different places. Starred links: 1 amine or outer side, 2 acyl side, 3 side chain; linkers in the order of their positions; H or OH if unused. Non-standard residues stand in square brackets, D forms with d. Residues, ends and D or L forms follow the SMILES beside them. ξ: configuration not given here. *: point of attachment. NMeThr(4R-Me,4-(CH2)6NHAc) = CN[C@H](C(=O)O)[C@H](O)[C@H](C)CCCCCCNC(C)=O; MeBmt = C/C=C/C[C@@H](C)[C@@H](O)[C@H](NC)C(=O)O; X1 = CCN(CC)CCS[C@H](C(=O)[*:2])N(C)[*:1]; NMeIle(3ξ) = CCC(C)[C@H](NC)C(=O)O; NMeL = CN[C@@H](CC(C)C)C(=O)O; NMeV = CN[C@H](C(=O)O)C(C)C; dNMeC = CN[C@H](CS)C(=O)O; dNMeS = CN[C@H](CO)C(=O)O; dNMeA = CN[C@H](C)C(=O)O; Abu = CC[C@H](N)C(=O)O; Butyl(4-OH) = OCCCC*

Key:
[1] = system: HCV replicon in cell line ET (luc-ubi-neo/ET), Huh7 human hepatoma cell line; experiment: HCV subgenomic replicon assay (luciferase end point); assay type: cell-based
Description: Anti-HCV activity of cyclosporine derivatives were evaluated in the HCV subgenomic replicon assay. The assay use the cell line ET (luc-ubi-neo/ET), which is a Huh7 human hepatoma cell line harboring an HCV replicon with a stable luciferase (Luc) reporter. HCV RNA replication was assessed by quantifying HCV replicon-derived luciferase activity. The antiviral activity of cyclosporine analogs were evaluated after drug treatment to derive EC50 and EC90 values by using the luciferase end point (Krieger, N., et al., 2001, J. Viral. 75, 4614-4624; Pietschmann, T., et al., 2002, J. Viral. 76, 4008-4021; each of which is incorporated herein by reference). Cytotoxicity was assessed in parallel.

cyclophilin A = cyclophilin A (Homo sapiens, UniProt P62937); settings: published, Gallay et al. 2016; read-out: cyclophilin binding EC50 for cyclophilin A; cited from earlier work
[2] = system: multi-genotype HCV GT1a to 4a; settings: cited from earlier work
HCV = settings: reported by Hopkins et al. 2010; read-out: in vitro anti-HCV activity (EC50); cited from earlier work
Human recombinant CypA = target: T1, Human recombinant CypA (Homo sapiens, UniProt P62937); experiment: Cyclophilin A PPIase inhibition, α-chymotrypsin-coupled assay; assay type: biochemical; settings: 10 nM human recombinant CypA, 5° C, succinyl-AAPF-pNA substrate
T1 construct: purchased Atgen
Description: Inhibition of CyPA isomerase activity was assessed using the α-chymotrypsin-coupled assay adapted to a 96-well plate format. Human recombinant CypA (Atgen) was dissolved to 10 nM in isomerase buffer (50 mM Hepes, 100 mM NaCl, 1 mg/ml bovine serum albumin, 1 mg/ml a-chymotrypsin; pH 8). Succinyl-AAPF-pNA peptide substrate (Sigma) was dissolved to 3.2 mM in dried LiCl/trifluoroethanol. […] All solutions were equilibrated, and reactions conducted at 5° C. Reactions were initiated by mixing 95 μL reaction mix with 5 μL peptide preloaded in multiple wells of 96-well plates and measuring OD405 nm in each well at 6-sec intervals for 6 min using a BMG Polarstar Galaxy plate reader. Data were fitted with Graphpad Prism 6.0 to obtain first-order rate constants. Enzyme catalyzed rate constants were calculated by subtracting the rate constant from uncatalyzed reactions (no CypA), and the catalytic rate constants plotted as a function of inhibitor concentration to obtain IC50s (see […] et al., 2015, PLOS ONE).

Cyclophilin D (CyPD) = Cyclophilin D (CyPD) (Homo sapiens, UniProt P30405); experiment: Cyclophilin D PPIase inhibition assay; assay type: biochemical
[3] = Hepatitis C virus, Huh-7, read-out: Antiviral activity
[4] = HCV subgenomic replicon, Huh7 ET cells, luciferase end point, read-out: Antiviral activity

Cyclophilin D (CyPD), sequence (P30405 30-207, species assumed): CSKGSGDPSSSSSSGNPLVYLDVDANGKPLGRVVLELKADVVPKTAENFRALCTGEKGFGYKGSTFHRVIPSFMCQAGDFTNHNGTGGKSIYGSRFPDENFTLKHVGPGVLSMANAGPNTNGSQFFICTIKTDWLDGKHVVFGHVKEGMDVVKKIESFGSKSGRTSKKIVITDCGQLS
T1 sequence (P62937 whole entry): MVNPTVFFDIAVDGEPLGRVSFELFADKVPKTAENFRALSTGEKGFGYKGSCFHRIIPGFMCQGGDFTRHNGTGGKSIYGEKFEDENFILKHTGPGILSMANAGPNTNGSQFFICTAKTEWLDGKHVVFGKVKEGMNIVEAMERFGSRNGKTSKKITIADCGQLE
cyclophilin A, sequence (P62937 whole entry): as above

`CC[C@@H]1NC(=O)[C@H]([C@H](O)[C@H](C)CCCCCCNC(C)=O)N(C)C(=O)[C@H](C(C)C)N(C)C(=O)[C@H](CC(C)C)N(C)C(=O)[C@H](CC(C)C)N(C)C(=O)[C@@H](C)NC(=O)[C@H](C)NC(=O)[C@H](CC(C)C)N(C)C(=O)[C@H](C(C)C)NC(=O)[C@H](CC(C)(C)O)N(C)C(=O)CN(C)C1=O` [[8-(2-Acetamidoethyl)-6,7-dihydro-MeBmt]-1-[(γ-hydroxy)-N-MeLeu]-4-cyclosporin] showed an IC50 [1, 3] of under 35 nM.

In the case of `CC=CCC(C)C(O)C1C(=O)NC(CC)C(=O)N(C)C(CSCCCCO)C(=O)N(C)C(CC(C)(C)O)C(=O)NC(C(C)C)C(=O)N(C)C(CC(C)C)C(=O)NC(C)C(=O)NC(C)C(=O)N(C)C(CC(C)C)C(=O)N(C)C(CC(C)C)C(=O)N(C)C(C(C)C)C(=O)N1C` (centres unmarked) [STG-175], the EC50 (cyclophilin A) is listed as 0.6 nM, the “cross-resistance with direct anti-viral agents (DAAs)” value [2] is listed as “No cross-resistance is observed” and the “viral replication rebound after cessation of drug treatment” value ([2]; compared with Sofosbuvir) is listed as “no viral replication rebound is observed”. For the same molecule, the EC50 ([2]; multi-genotype HCV GT1a to 4a, published, Gallay et al. 2016, read-out: anti-HCV activity EC50) was 11.5 to 38.9 nM.

For `C/C=C/C[C@@H](C)[C@@H](O)[C@H]1C(=O)N[C@@H](CC)C(=O)N(C)CC(=O)N(C)[C@@H](C(C)C)C(=O)N[C@@H](C(C)C)C(=O)N(C)[C@@H](CC(C)C)C(=O)N[C@@H](C)C(=O)N[C@H](C)C(=O)N(C)[C@@H](CC(C)C)C(=O)N(C)[C@@H](CC(C)C)C(=O)N(C)[C@@H](C(C)C)C(=O)N1C` [[N-MeVal]-4-cyclosporin (SDZ 220-384), N-MeVal-4-Cyclosporin], the IC50 [1, 4] was 90 to 250 nM.

For `C/C=C/C[C@@H](C)[C@@H](O)[C@H]1C(=O)N[C@@H](CC)C(=O)N(C)[C@H](SCCN(C)C)C(=O)N(C)[C@@H](CC(C)(C)O)C(=O)N[C@@H](C(C)C)C(=O)N(C)[C@@H](CC(C)C)C(=O)N[C@@H](C)C(=O)N[C@H](C)C(=O)N(C)[C@@H](CC(C)C)C(=O)N(C)[C@@H](CC(C)C)C(=O)N(C)[C@@H](C(C)C)C(=O)N1C` [SCY-635], the EC50 (HCV) is given as 100 nM.

`C/C=C/C[C@@H](C)[C@@H](O)[C@H]1C(=O)N[C@@H](CC)C(=O)N(C)CC(=O)N(C)[C@@H]([C@@H](C)CC)C(=O)N[C@@H](C(C)C)C(=O)N(C)[C@@H](CC(C)C)C(=O)N[C@@H](C)C(=O)N[C@H](C)C(=O)N(C)[C@@H](CC(C)C)C(=O)N(C)[C@@H](CC(C)C)C(=O)N(C)[C@@H](C(C)C)C(=O)N1C` [[N-MeIle]-4-cyclosporin (SDZ-NIM-811), N-MeIle-4-Cyclosporin] showed an IC50 [1, 3] of 90 to 250 nM.

In the case of `CC[C@@H]1NC(=O)[C@H]([C@H](O)[C@H](C)CCCCCCNC(C)=O)N(C)C(=O)[C@H](C(C)C)N(C)C(=O)[C@H](CC(C)C)N(C)C(=O)[C@H](CC(C)C)N(C)C(=O)[C@@H](C)NC(=O)[C@H](C)NC(=O)[C@H](CC(C)C)N(C)C(=O)[C@H](C(C)C)NC(=O)[C@H](CC(C)C)N(C)C(=O)[C@@H](CO)N(C)C1=O` [[8-(2-Acetamidoethyl)-6,7-dihydro-MeBmt]-1-[(R)-hydroxymethyl-Sar]-3-cyclosporin] (cyclo(A[dA][NMeL][NMeL][NMeV][NMeThr(4R-Me,4-(CH2)6NHAc)][Abu][dNMeS][NMeL]V[NMeL])), the IC50 [1, 3] is reported as under 35 nM.

Work on `C/C=C/C[C@@H](C)[C@@H](O)[C@H]1C(=O)N[C@@H](CC)C(=O)N(C)[C@H](CSCCCCO)C(=O)N(C)[C@@H](CC(C)(C)O)C(=O)N[C@@H](C(C)C)C(=O)N(C)[C@@H](CC(C)C)C(=O)N[C@@H](C)C(=O)N[C@H](C)C(=O)N(C)[C@@H](CC(C)C)C(=O)N(C)[C@@H](CC(C)C)C(=O)N(C)[C@@H](C(C)C)C(=O)N1C` [[(S)-(4-Hydroxylbutylthio)methyl-Sar]-3-[(γ-hydroxy)-N-MeLeu]-4-cyclosporin] yielded an IC50 (Human recombinant CypA) of under 4 nM and an EC50 (Cyclophilin D (CyPD)) of under 4 nM.

In the case of `CC[C@@H]1NC(=O)[C@H]([C@H](O)[C@H](C)CCCCCCNC(C)=O)N(C)C(=O)[C@H](C(C)C)N(C)C(=O)[C@H](CC(C)C)N(C)C(=O)[C@H](CC(C)C)N(C)C(=O)[C@@H](C)NC(=O)[C@H](C)NC(=O)[C@H](CC(C)C)N(C)C(=O)[C@H](C(C)C)NC(=O)[C@H](CC(C)C)N(C)C(=O)[C@@H](CSCCCCO)N(C)C1=O` [[8-(2-Acetamidoethyl)-6,7-dihydro-MeBmt]-1-[(S)-(4-hydroxybutylthio)methyl-Sar]-3-cyclosporin] (cyclo(A[dA][NMeL][NMeL][NMeV][NMeThr(4R-Me,4-(CH2)6NHAc)][Abu][dNMeC](Butyl(4-OH))[NMeL]V[NMeL])), the IC50 [1, 3] is reported as under 35 nM, the IC50 (Human recombinant CypA) is reported as under 4 nM and the EC50 (Cyclophilin D (CyPD)) is reported as under 4 nM.

`CC[C@@H]1NC(=O)[C@H]([C@H](O)[C@H](C)CCCCCCNC(C)=O)N(C)C(=O)[C@H](C(C)C)N(C)C(=O)[C@H](CC(C)C)N(C)C(=O)[C@H](CC(C)C)N(C)C(=O)[C@@H](C)NC(=O)[C@H](C)NC(=O)[C@H](CC(C)C)N(C)C(=O)[C@H](C(C)C)NC(=O)[C@H](CC(C)C)N(C)C(=O)[C@@H](C)N(C)C1=O` [[8-(2-Acetamidoethyl)-6,7-dihydro-MeBmt]-1-[(R)-Methyl]-3-cyclosporin] (cyclo(A[dA][NMeL][NMeL][NMeV][NMeThr(4R-Me,4-(CH2)6NHAc)][Abu][dNMeA][NMeL]V[NMeL])) showed an IC50 [1, 3] of under 35 nM.

Work on `C/C=C/C[C@@H](C)[C@@H](O)[C@H]1C(=O)N[C@@H](CC)C(=O)N(C)[C@H](C)C(=O)N(CC)[C@@H](C(C)C)C(=O)N[C@@H](C(C)C)C(=O)N(C)[C@@H](CC(C)C)C(=O)N[C@@H](C)C(=O)N[C@H](C)C(=O)N(C)[C@@H](CC(C)C)C(=O)N(C)[C@@H](CC(C)C)C(=O)N(C)[C@@H](C(C)C)C(=O)N1C` [Alisporivir] yielded an IC50 [1, 3] of under 35 nM, an IC50 (Human recombinant CypA) of under 4 nM and an EC50 (Cyclophilin D (CyPD)) of under 4 nM.

Work on `CC[C@@H]1NC(=O)[C@H]([C@H](O)[C@H](C)CCCCCCNC(C)=O)N(C)C(=O)[C@H](C(C)C)N(C)C(=O)[C@H](CC(C)C)N(C)C(=O)[C@H](CC(C)C)N(C)C(=O)[C@@H](C)NC(=O)[C@H](C)NC(=O)[C@H](CC(C)C)N(C)C(=O)[C@H](C(C)C)NC(=O)[C@H](CC(C)C)N(C)C(=O)CN(C)C1=O` [[8-(2-Acetamidoethyl)-6,7-dihydro-MeBmt]-1-cyclosporin] yielded an IC50 [1, 3] of under 35 nM.

Work on `C/C=C/C[C@@H](C)[C@@H](O)[C@H]1C(=O)N[C@@H](CC)C(=O)N(C)[C@H](SCCN(C)C)C(=O)N(C)[C@@H](CC(C)(C)O)C(=O)N[C@@H](C(C)C)C(=O)N(C)[C@@H](CC(C)C)C(=O)N[C@@H](C)C(=O)N[C@H](C)C(=O)N(C)[C@@H](CC(C)C)C(=O)N(C)[C@@H](CC(C)C)C(=O)N(C)[C@@H](C(C)C)C(=O)N1C` yielded an IC50 [1, 3] of 35 to 90 nM and an EC50 (Cyclophilin D (CyPD)) of 4 to 10 nM.

Molecule “[8-(2-Acetamidoethyl)-6,7-dihydro-MeBmt]-1-[(S)-(4-hydroxybutylthio)methyl-Sar]-3-[(γ-hydroxy)-N-MeLeu]-4-cyclosporin” has an IC50 [1, 4] of under 35 nM.

With `C/C=C/C[C@@H](C)[C@@H](O)[C@H]1C(=O)N[C@@H](CC)C(=O)N(C)[C@H](SCCN(CC)CC)C(=O)N(C)[C@@H](C(C)CC)C(=O)N[C@@H](C(C)C)C(=O)N(C)[C@@H](CC(C)C)C(=O)N[C@@H](C)C(=O)N[C@H](C)C(=O)N(C)[C@@H](CC(C)C)C(=O)N(C)[C@@H](CC(C)C)C(=O)N(C)[C@@H](C(C)C)C(=O)N1C` (stereo partly drawn) [(R)-2-(N,N-Diethylamino)ethylthio-Sar]-3-[N-MeIle]-4-cyclosporin] (cyclo(A[dA][NMeL][NMeL][NMeV][MeBmt][Abu][X1][NMeIle(3ξ)]V[NMeL])) the IC50 [1, 4] was under 35 nM.
